The text below walks through data of patent publication US20240366701A1, “EXTRACT OF MYROTHAMNUS SP FOR PROMOTING HAIR GROWTH” (Lubrizol Advanced Materials, Inc., priority 2021, published 2024).

For test [1], the system named is Human Epidermal Keratinocyte cells (HEK). In words: In vitro proliferation assay on keratinocyte cells (PrestoBlue). The test is classed as cell-based. As to conditions: test concentration 10 (%, v/v), 24 h, negative control = 100.00. How it is done: Human Epidermal Keratinocyte cells (HEK) are grown to a density of 4500 cells/cm^2 in keratinocyte growth medium at 37° C. in 5% CO2 humidified air during 7 days. After this time, they are split and then seeded for treatment.
HEK are seeded at a density of 70000 cells/mL of culture medium in 96-well Cell Carrier black plates (PerkinElmer) in culture medium. After 24 hours incubation at 37° C. in 5% CO2 humidified air, medium is removed and fresh culture medium with dilutions of the test products. Cells treated with medium alone are used as negative control. Epidermal Growth Factor (EGF) is used as a positive control. After 24 hours incubation, live and dead cells are quantified with PrestoBlue® Cell Viability Reagent.
HEK quantification is quantified by fluorescence by using cell permeable resazurin-based solution PrestoBlue® from Thermo Fisher Scientific.
Stock solution of Example 1 and 2 are assayed in 3 independent experiments including 4 replicates in each experiment.

Test [2] deals with Human Umbilical Vein Endothelial cells (HUVEC). Put plainly: In vitro new blood vessel (tube-like structure) formation. The conditions noted are these: 5 ng/ml, 4 h, respect basal condition. The test is classed as cell-based. The source says:
Hair follicles get nourishment from blood flow in the skin having hair. Optimal irrigation of hair follicle increases its nourishment and stimulates the generation of new hair and improves hair growth and strength. Compounds able to generate new blood vessels in the hair follicle are good candidates for the cosmetic treatment of eyelash growth and strength. In vitro assessment of new blood vessels formation involves measurement of the ability of endothelial cells to form three-dimensional tube-like structures. Human Umbilical Vein Endothelial cells (HUVEC) mediate specific connections with extracellular matrix components generating differential forces which induces morphological changes and migration of HUVEC, leading to the formation of tube-like structures. The aim of this study is to evaluate the efficacy of the compound of the invention to generate new blood vessel tubes by means of measuring the ability of endothelial cells to form three-dimensional tube-like structures.
A 96 well plate is pre-coated with cold Extracellular Matrix Solution (Angiogenesis Assay kit, PromoKine) and incubated for 1 hour at 37° C. After the incubation, HUVEC cells are seeded in pre-coated wells at a density of 15,000 cells/well. Immediately, cells are treated with the stock solution of Example 2 dissolved in medium achieving a final well concentration of 0.5% (v/v). Vascular endothelial growth factor (VEGF) is used as positive control at a final well concentration of 5 ng/ml and cells treated with medium alone are used as a basal control. Cells are treated for 4 hours at 37° C. in 5% CO2 humidified air and then are stained with Staining Dye (Angiogenesis Assay kit, PromoKine) according to the manufacturer's protocol. Briefly, cells are washed and then Staining Dye solution was added. After a 30 minutes incubation at 37° C. in 5% CO2 humidified air, fluorescence images are captured using Operetta® confocal microscope (PerkinElmer, Inc) and new tubes formation is evaluated by ImageJ software.
New blood vessel tube formation is evaluated by the measurement of different parameters in each image acquired. […] Afterwards, the software quantifies more complex structures: • Segment length: number of pixels of each segment detected. • Master segment number: number of segments delimited by junctions without branch connection. • Master junction number: number of junctions which link at least three master segments. • Number of meshes: number of elements delimited by segments or master segments.
To consider an increase in new blood vessel tube formation, more than one of the parameters measured needs to be increased.
Results herein are the different measured parameters expressed as percentage normalized by basal condition.

For “Positive control (EGF): Epidermal Growth Factor used as a positive control”, the “Cell growth MEAN normalized with respect to the negative control” value in test [1] is reported as 94.41.

Take VEGF: in test [2], the “% of number of master junctions (Mean ± SEM)” value worked out at 183.1 ± 31.1%, the “% of number of master segments (Mean ± SEM)” value was 196.5 ± 36.5%, the “% of number of meshes (Mean ± SEM)” value was determined as 288.6 ± 75.9% and the “% of total segment length (Mean ± SEM)” value is 160.1 ± 21.9%.
